# Legend:
# Assay type in all cases: in vivo
# [1] = tested on: Western Corn Rootworm (Diabrotica virgifera virgifera); experiment: CE.2 Western corn rootworm assay, treated soil; conditions: second-instar larvae, 3 days after infestation
# Experimental: (§1) The activity summarized in the tables hereinbelow are given as percentage of mortality in comparison with untreated control
# The active compound was applied in acetone at rates of 5 and 50 ppm a.i./soil (w/w). Treatments were applied in solution to sifted, North Carolina loamy sand (Sandhill soil) in a plastic bag. Treatments were thoroughly incorporated by sealing and shaking each bag by hand and allowing the solution to soak through the soil mass for at least 10 minutes before unsealing. The bags were then kept open in a fume hood overnight to evaporate the solvent from the soil.
# One day after treatment (DAT) distilled water for moisture and water-soaked millet seed (Panicum miliaceum ‘white millet’) as a food source were added to each bag and mixed in thoroughly. 11 cm^3 of millet and soil mixture were dispensed into a 1 oz. plastic cup. Each cup was infested with 10 western corn rootworm second-instar larvae. Each cup or group of four cells was a replicate, and replication was 3×. The test was maintained in incubators at 26° C. in the dark. Mortality was evaluated 3 days after infestation (DAI) and mean percent mortality was calculated.
# [2] = tested on: Cowpea Aphid (Aphis craccivora); experiment: B.1 Cowpea aphid, sprayed potted cowpea plants; conditions: assessed after 72 hours, read-out: mortality in comparison with untreated controls
# Experimental: The active compound is dissolved at the desired concentration in a mixture of 1:1 (vol:vol) distilled water:acetone. Surfactant (Alkamuls® EL 620) is added at a rate of 0.1% (vol/vol). The test solution is prepared at the day of use.
# (§2) Potted cowpea plants were colonized with approximately 50 to 100 aphids of various stages by manually transferring a leaf tissue cut from infested plant 24 hours before application. Plants were sprayed after the pest population has been recorded. Treated plants are maintained on light carts at about 28° C. Percent mortality was assessed after 72 hours.
# [3] = tested on: Diamond Back Moth (Plutella xylostella); experiment: B.2 Diamond back moth, cabbage leaf dip; conditions: foliar, dipped cabbage leaves, 3rd instar larvae, 72 hours after treatment, read-out: mortality in comparison with untreated controls
# Experimental: The active compound is dissolved at the desired concentration in a mixture of 1:1 (vol:vol) distilled water:aceteone. Surfactant (Alkamuls® EL 620) is added at a rate of 0.1% (vol/vol).The test solution is prepared at the day of use.
# Leaves of cabbage were dipped in test solution and air-dried. Treated leaves were placed in petri dish eslined with moist filter paper and inoculated with ten 3rd instar larvae. Mortality was recorded 72 hours after treatment. Feeding damages were also recorded using a scale of 0-100%.
# [4] = tested on: Green Peach Aphid (Myzus persicae); experiment: B.3 Green peach aphid, systemic, artificial diet in 96-well plates; conditions: 72 h, adult aphids, 3 days, read-out: mortality in comparison with untreated controls
# Text: For evaluating control of green peach aphid (Myzus persicae) through systemic means the test unit consisted of 96-well-microtiter plates containing liquid artificial diet under an artificial membrane.
# The compounds were formulated using a solution containing 75% v/v water and 25% v/v DMSO. Different concentrations of formulated compounds were pipetted into the aphid diet, using a custom built pipetter, at two replications.
# After application, 5 to 8 adult aphids were placed on the artificial membrane inside the microtiter plate wells. The aphids were then allowed to suck on the treated aphid diet and incubated at about 23+1° C. and about 50+5% relative humidity for 3 days. Aphid mortality and fecundity was then visually assessed.
# [5] = tested on: Mediterranean Fruitfly (Ceratitis capitata); experiment: B.4 Mediterranean fruitfly, insect diet with eggs in microtiter plates; conditions: 120 h, egg and larval mortality, 5 days, read-out: mortality in comparison with untreated controls
# Experimental: (§3) For evaluating control of Mediterranean fruitfly (Ceratitis capitata) the test unit consisted of microtiter plates containing an insect diet and 50-80 C. capitata eggs.
# (§4) The compounds were formulated using a solution containing 75% v/v water and 25% v/v DMSO. Different concentrations of formulated compounds were sprayed onto the insect diet at 5 μl, using a custom built micro atomizer, at two replications.
# (§5) After application, microtiter plates were incubated at about 28+1° C. and about 80+5% relative humidity for 5 days. Egg and larval mortality was then visually assessed.
# [6] = tested on: Orchid Thrips (Dichromothrips Corbetti); experiment: B.5 Orchid thrips, floral-immersion technique; conditions: dipped orchid flowers, adult thrips, 72 hours after treatment, read-out: mortality in comparison with untreated controls
# Experimental: Dichromothrips corbetti adults used for bioassay were obtained from a colony maintained continuously under laboratory conditions. For testing purposes, the test compound is diluted in a 1:1 mixture of acetone:water (vol:vol), plus 0.01% vol/vol Alkamuls® EL 620 surfactant.
# Thrips potency of each compound was evaluated by using a floral-immersion technique. Plastic petri dishes were used as test arenas. All petals of individual, intact orchid flowers were dipped into treatment solution and allowed to dry. Treated flowers were placed into individual petri dishes along with about 20 adult thrips. The petri dishes were then covered with lids. All test arenas were held under continuous light and a temperature of about 28° C. for duration of the assay. After 3 days, the numbers of live thrips were counted on each flower, and along inner walls of each petri dish. The percentmortality was recorded 72 hours after treatment.
# [7] = tested on: Vetch Aphid (Megoura Viciae); experiment: B.7 Vetch aphid, broad bean leaf disks in 24-well plates; conditions: foliar, 120 h, sprayed leaf disks, adult aphids, 5 days, read-out: mortality in comparison with untreated controls
# Experimental: For evaluating control of vetch aphid (Megoura viciae) through contact or systemic means the test unit consisted of 24-well-microtiter plates containing broad bean leaf disks.
# The compounds were formulated using a solution containing 75% v/v water and 25% v/v DMSO. Different concentrations of formulated compounds were sprayed onto the leaf disks at 2.5 μl, using a custom built micro atomizer, at two replications.
# After application, the leaf disks were air-dried and 5 to 8 adult aphids placed on the leaf disks inside the microtiter plate wells. The aphids were then allowed to suck on the treated leaf disks and incubated at about 23+1° C. and about 50+5% relative humidity for 5 days. Aphid mortality and fecundity was then visually assessed.
# [8] = tested on: Tobacco Budworm (Heliothis virescens); experiment: B.8 Tobacco budworm I, insect diet with eggs in 96-well plates; conditions: 120 h, egg and larval mortality, 5 days, read-out: mortality in comparison with untreated controls
# Experimental: For evaluating control of tobacco budworm (Heliothis virescens) the test unit consisted of 96-well-microtiter plates containing an insect diet and 15-25 H. virescens eggs.
# The compounds were formulated using a solution containing 75% v/v water and 25% v/v DMSO. Different concentrations of formulated compounds were sprayed onto the insect diet at 10 μl, using a custom built micro atomizer, at two replications.
# as §5
# [9] = tested on: Boll Weevil (Anthonomus grandis); experiment: B.9 Boll weevil, insect diet with eggs in 96-well plates; conditions: 120 h, egg and larval mortality, 5 days, read-out: mortality in comparison with untreated controls
# Experimental: For evaluating control of boll weevil (Anthonomus grandis) the test unit consisted of 96-well-microtiter plates containing an insect diet and 5-10 A. grandis eggs.
# as §4
# After application, microtiter plates were incubated at about 25+1° C. and about 75+5% relative humidity for 5 days. Egg and larval mortality was then visually assessed.
# [10] = tested on: Cowpea Aphid (Aphis craccivora); experiment: CE.1 Cowpea aphid, comparison with prior art compounds; conditions: for % activity (mortality of Cowpea aphid in %, vs. untreated control): sprayed cowpea plants, assessed after 72 hours
# Experimental: as §1
# The active compound was dissolved at the desired concentration in a mixture of 1:1 (vol:vol) distilled water:acetone. Surfactant (Alkamuls® EL 620) is added at a rate of 0.1% (vol/vol). The test solution was prepared at the day of use.
# as §2
# [11] = tested on: Mediterranean Fruitfly (Ceratitis capitata); experiment: CE.3 Mediterranean fruitfly, comparison with prior art compounds; conditions: 5 days; for Mediterranean fruitfly egg and larval mortality vs. untreated control (%): sprayed onto insect diet with eggs
# Experimental: as §1, §3, §4
# After application, microtiter plates were incubated at about 28±1° C. and about 80±5% relative humidity for 5 days. Egg and larval mortality was then visually assessed.
Structure (SMILES),"% activity (mortality of Western corn rootworm in %, vs. untreated control) ([1]; 5 ppm a.i./soil (w/w)) [%]","% activity (mortality of Western corn rootworm in %, vs. untreated control) ([1]; 50 ppm a.i./soil (w/w)) [%]",mortality at 300 ppm [2] [%],mortality at 300 ppm [3] [%],mortality at 2500 ppm [4] [%],mortality at 2500 ppm [5] [%],mortality at 300 ppm [6] [%],mortality at 2500 ppm [7] [%],mortality at 2500 ppm [8] [%],mortality at 2500 ppm [9] [%],"% activity (mortality of Cowpea aphid in %, vs. untreated control) ([10]; 100 ppm active ingredient) [%]","% activity (mortality of Cowpea aphid in %, vs. untreated control) ([10]; 300 ppm active ingredient) [%]","% activity (mortality of Cowpea aphid in %, vs. untreated control) ([10]; 500 ppm active ingredient) [%]",activity against Cowpea aphid in comparison with comparative compound CC-3 ([10]; percent mortality after 72 hours),Mediterranean fruitfly egg and larval mortality vs. untreated control (%) ([11]; 1415 ppm active ingredient),Mediterranean fruitfly egg and larval mortality vs. untreated control (%) ([11]; 2500 ppm active ingredient),activity against Mediterranean fruitfly in comparison with comparative compound CC-1 ([11]; egg and larval mortality)
"CCS(CC)=NC(=O)c1cc(Cl)cc(C)c1NC(=O)c1cc(C(F)(F)F)nn1-c1ncccc1Cl [CC-2, reference compound]",21,93,–,–,–,–,–,–,–,–,–,–,–,–,–,–,–
"CC(C)S(=NC(=O)c1cc(Cl)cc(Cl)c1NC(=O)c1cc(C(F)(F)F)nn1-c1ncccc1Cl)C(C)C [S.1, 2-(3-chloro-2-pyridyl)-N-[2,4-dichloro-6-[(bis-2-propyl-λ^4-sulfanylidene)carbamoyl]phenyl]-5-(trifluoromethyl)pyrazole-3-carboxamide]",100,100,> 75,> 75,> 75,> 75,> 75,> 75,> 75,> 95,100,100,100,superior activity,100,100,–
"O=C(N=S1CCCC1)c1cc(Cl)cc(Cl)c1NC(=O)c1cc(C(F)(F)F)nn1-c1ncccc1Cl [S.3, 2-(3-chloro-2-pyridyl)-N-[2,4-dichloro-6-[(tetrahydro-λ^4-thiophenidene)carbamoyl]phenyl]-5-(trifluoromethyl)pyrazole-3-carboxamide]",–,–,–,–,–,–,–,–,–,–,–,–,–,–,–,–,superior activity
"CCS(CC)=NC(=O)c1cc(Cl)cc(Cl)c1NC(=O)c1cc(C(F)(F)F)nn1-c1ncccc1Cl [S.6, N-[4,6-dichloro-2-[(diethyl-λ^4-sulfanylidene)carbamoyl]-phenyl]-2-(3-chloro-2-pyridyl)-5-(trifluoromethyl)pyrazole-3-carboxamide]",100,100,> 75,> 75,> 75,–,> 75,> 75,> 75,> 95,–,–,–,–,–,–,–

# — US9044016B2, “N-thio-anthranilamide compounds and their use as pesticides” (BASF SE, priority 2011, dated 2015)
